Tests used:
BGMK = type: cell-based, primate
RK-13 = type: cell-based, rabbit
RL5 = type: cell-based, rabbit

Measured: effect of rapamycin on replication of myxoma virus (virus titre by foci formation on BGMK cells)

CO[C@H]1C[C@@H]2CC[C@@H](C)[C@@](O)(O2)C(=O)C(=O)N2CCCC[C@H]2C(=O)O[C@H]([C@H](C)C[C@@H]2CC[C@@H](O)[C@H](OC)C2)CC(=O)[C@H](C)/C=C(\C)[C@@H](O)[C@@H](OC)C(=O)[C@H](C)C[C@H](C)/C=C/C=C/C=C/1C [rapamycin]
no effect: all assays above

From patent US9987315B2 (priority 2005, dated 2018)
